Experimental data from article PMC8885659, “Asymmetric, amphiphilic RGD conjugated phthalocyanine for targeted photodynamic therapy of triple negative breast cancer” (Signal Transduction and Targeted Therapy, 2022).
Each block holds one molecule with its values, some of them ahead of it.

Legend:
4T1 tumor model = assay: In vivo photodynamic activity; parameters: species or system Balb/c mice; conditions: for Tumor volume without light versus PBS and Light groups: no laser
Procedure: (§1) Balb/c female mice aged 6 to 8 weeks were purchased from Beijing Weitong Lihua Laboratory Animal Technology. All animal experiments were performed under protocols approved by the Institutional Animal Care and Use Committee (IACUC) of Peking University. In situ breast cancer tumor models were established by injecting 2 * 10^7 4T1-luci tumor cells under the fourth pair of mammary glands in mice. Treatment was initiated approximately 6 days after inoculation when the tumor volume grew to approximately 100 mm^3.
(§2) PDT treatment was performed on the 7th day when the 4T1 tumor model was established in mice, and the average initial tumor volume was 100 mm^3. The test groups were as follows: Group 1: PBS; Group 2: Light; Group 3: SC; Group 4: RSP; Group 5: SC + Light, Group 6: RSP + Light. First, 200 μl of RSP (2 mg/kg), SC (2 mg/kg), and PBS were injected intravenously. 4 h after the injection, the tumor area was irradiated with 671 nm laser (0.1 W/cm^2) for 6 min with a total laser intensity of 36 J/cm^2 and laser treatment was performed on groups 2, 5, and 6. After PDT treatment, the tumor size was measured every day using electronic vernier calipers until 12 days. The maximum width (X) and length (Y) of the tumor were measured, and the following formula was used to calculate the tumor volume: V = (X^2Y)/2. From the first day of treatment, the weight change of each group of mice was recorded until the end of the treatment. Mice in each group were selected randomly, and excised tumors for pathological analysis. In order to investigate the biological safety of this PDT method, after the treatment, the main organs (heart, liver, spleen, lung, kidney) of each group of differently treated mice were dissected, and H&E section staining was performed to evaluate their Pathological changes.

[1] = Biological safety in the PDT study (body weight, H&E of main organs); type: in vivo, Balb/c mice; conditions: for Mouse body weight change: all treatment groups with or without light, 2 mg/kg i.v., n = 5
Procedure: as §2

4T1 cells [2] = assay: Subcellular co-localization with lysosomes (confocal); type: cell-based, murine; conditions: 1 μM, 4 h incubation, Lysotracker, n = 3
Procedure: Subcellular colocalization pictures were taken under a laser confocal microscope (Nikon A1R high-speed confocal laser microscope, Nikon Corporation, Japan). 4T1 cells were cultured in 35 mm cell culture dishes at a density of 20,000 cells/dish, and cultured overnight. After 24 h, the medium was replaced with DMEM medium (containing 0.05% CEL) containing 1 μM RSP or SC. After 4 h of incubation, the plates were washed with PBS and then stained with DMEM medium containing Lysotracker for 30 min and washed again with PBS. Then fixed and counterstained with DAPI. The light was always avoided during the entire operation. The dynamic change of fluorescence on any straight line passing through the whole cell was analyzed by Image J. The result was plot to qualitatively analyze the co-localization situation of lysosome and phthalocyanine. In order to more completely reflect the co-localization of lysosomes and phthalocyanines, the Pearson co-localization coefficient was analyzed on the fluorescence fields of cells obtained from three photographs, and the difference in lysosomal localization of RSP and SC in the cells was quantitatively analyzed.

[3] = Singlet oxygen yield detection with DPBF; type: physicochemical; conditions: physiological saline containing 1% CEL; for Slope of DPBF bleaching (singlet oxygen yield): laser 610 nm, 225 mW/cm^2, DPBF absorbance at 414 nm
Description: Generation of singlet oxygen was detected chemically using the disodium salt of 1,3-diphenylisobenzofuran (DPBF) as a singlet oxygen sensor. DPBF is bleached by singlet oxygen to its corresponding endoperoxide. The reaction was monitored spectrophotometrically by recording the decrease in optical density at 414 nm. The bleaching rate of DPBF can also be used as a method to compare the yield of singlet oxygen. In the actual measurement of singlet oxygen yield, a certain amount of DPBF ethanol solution and test solution are mixed together in a dark room. A rotor is added to the cuvette, and the laser is irradiated for different times while stirring. The absorption spectra of the mixed solution was tested after different time of irradiation with an ultraviolet spectrophotometer, then the change of the absorption value of DPBF at 414 nm was obtained.

4T1 cells [4] = assay: Cytotoxicity assay (CCK8), phototoxicity and dark toxicity; type: cell-based, murine; conditions: for Dark toxicity: cell viability without light: no light, CCK8, n = 5
Procedure: 4T1 cells were seeded in a 96-well plate at a density of 10,000 cells/well, and each well was cultured overnight with 200 μL of DMEM medium containing 10% FBS. On the second day, the original medium was discarded and replaced with DMEM medium containing different concentrations of SC or RSP (containing 0.05% CEL). After 4 h of incubation, the cells were incubated with fresh medium and irradiated with a xenon lamp. Then 10 μL of CCK8 was added to each well, and the incubation continued for 1 h. After the incubation, the absorbance value at 450 nm was measured with enzyme labels (Synergy HT, BioTek, USA). At the same time, a blank control was set to determine cell viability. The dark toxicity test method was similar, except that no light was applied to the cells.

[5] = Blood circulation dynamics and organ distribution; type: in vivo, Balb/c mice
Procedure: The ideal targeted photosensitizer should be able to quickly accumulate at the tumor site and metabolize from normal organs after injection. […] After 24 h, 48 h, and 120 h of RSP injection, the major organs of the mice were dissected and their fluorescence was quantified.
In order to investigate the blood clearance rate of RSP, healthy male Balb/c mice were selected as experimental subjects, and blood was collected from the orbit to detect the drug concentration in the body at different time points. Fluorescence labeled Organism Bioimaging Instrument (FOBI, South Korea) was used to measure the relative concentration of phthalocyanine in mouse plasma. Mice were injected with RSP through the tail vein at a dose of 2 mg/kg. At different time intervals, blood samples were collected from the orbits of mice with capillary tubes coated with heparin, placed on ice, and centrifugated to separate blood cells (3000 g, 10 min). The resulting plasma samples were analyzed for phthalocyanine concentration.

4T1 tumor = assay: In vivo fluorescence imaging of tumor targeting; parameters: species or system Balb/c mice
Procedure: as §1
For in vivo fluorescence imaging, RSP or SC dissolved in physiological saline (containing 1% CEL) was injected intravenously at a dose of 2 mg/kg into tumor-bearing mice (both in situ and subcutaneous models). Then IVIS Spectrum In Vivo Imaging System (PerkinElmer) was utilized to collect the fluorescence signals of RSP (660 nm/710 nm) in subcutaneous models at different times after the injection. The small animal fluorescence imaging system was used for in situ tumor-bearing mice imaging, taking pictures, and recording. The excitation wavelength was 660 nm, and the fluorescence signal was collected with a 700 nm filter. Then, the FOBI software was used to process the data to analyze the enrichment of phthalocyanines in the tumors of the mice after different injection times. The mice after 24 h fluorescence imaging were sacrificed, and the hearts, livers, spleens, lungs, kidneys, and tumors were collected for analysis of fluorescence semiquantitative biodistribution.

4T1 cells [6] = assay: Apoptosis/necrosis by flow cytometry after TPDT; type: cell-based, murine; conditions: 500 nM, 4 h incubation, with light
Procedure: The apoptosis rate and necrosis rate of the cells were detected on the flow cytometer according to the operating procedure of the apoptosis detection kit. 4T1 cells were seeded in a six-well plate at a density of 5 * 10^5 cells/well overnight. On the second day, the medium was changed to DMEM medium containing 500 nM RSP/SC and 1% CEL, and the cells were incubated for 4 h. Then the medium was replaced with fresh DMEM. The cells were applied light/ no light, and then digested.

[7] = Solubility and aggregation state (absorption spectra); type: physicochemical
Description: Therefore, we dissolved RSP in physiological saline containing 1% CEL, DMEM medium containing 0.05% CEL, and DMF (as a control) to measure its absorption and fluorescence spectrum. […] RSP had the characteristics of not being aggregated in physiological saline and cell culture media, which provides a basis for further investigation of its phototoxicity.

[8] = Photostability under laser irradiation; type: physicochemical; conditions: 4 mins of laser irradiation, 225 mW/cm^2, UV-vis absorption
Procedure: In order to better simulate the situation of photosensitive molecules in practical applications, the singlet oxygen yield of RSP in physiological saline containing 1% CEL was measured (Fig. 2c). The slope of RSP and SC was 0.06481 and 0.07165 respectively (Supplementary Fig. 6). […] We further determined the photostability of RSP. […] The axial modification of RSP helped to improve the stability of the phthalocyanine parent ring when singlet oxygen was generated, so that it was less prone to degrade.

[9] = RSP + light (RSPL), tumor sections, n = 3
[10] = subcutaneous tumor model, 2 mg/kg tail vein, n = 3

Slope of DPBF bleaching (singlet oxygen yield) [3]: 0.07165
Molecule: 2[4-(3-carboxypropyl)phenoxy]silicon phthalocyanine [SC]
Tumor volume without light versus PBS and Light groups (4T1 tumor model; 2 mg/kg i.v., n = 5): no significant difference
Inhibition of tumor cell proliferation with light, in words (4T1 tumor model; SC + light, 2 mg/kg i.v., 671 nm laser 36 J/cm^2, tumor weight, n = 5): not significantly inhibited
Mouse body weight change [1]: no significant changes
Lysosomal colocalization index (Pearson co-localization coefficient) (4T1 cells [2]): 0.38
Dark toxicity: cell viability without light (4T1 cells [4]): did no significantly decreased

Molecule: N=C(N)NCCC[C@@H]1NC(=O)[C@H](CCCCNC(=O)CCc2ccc(O[Si]3(Oc4ccc(CCC(=O)O)cc4)n4c5c6ccccc6c4N=C4N=C(N=c6c7ccccc7c(n63)=NC3=NC(=N5)c5ccccc53)c3ccccc34)cc2)NC(=O)[C@@H](Cc2ccc(O)cc2)NC(=O)[C@H](CC(=O)O)NC(=O)CNC1=O (stereo partly shown) [RSP, cRGDyK modified targeting silicon phthalocyanine]
Elimination half-time (t1/2β) ([5]; healthy male Balb/c mice, 2 mg/kg tail vein, plasma fluorescence (FOBI)): 463.02 min
Fluorescence of main organs 120 h after injection ([5]; mice, 2 mg/kg intravenous, 120 h, n = 3): no obvious fluorescent signal can be detected
Fraction metabolized in 48 h ([5]; mice, 2 mg/kg intravenous, fluorescence of main organs, n = 3): more than 90%
Tumor volume without light versus PBS and Light groups (4T1 tumor model; 2 mg/kg i.v., n = 5): no significant difference
Apoptosis in tumor tissue (TUNEL) relative to SCL group (4T1 tumor model; [9]): twice that of SCL group
Ki67 proliferation signal as % of PBS control group (4T1 tumor model; [9]): 10%
Ki67 proliferation signal as fraction of SCL group (4T1 tumor model; [9]): 1/4
H&E pathology of heart, liver, spleen, lung and kidney ([1]; after treatment, RSP injection and laser irradiation): no obvious pathological phenomena
Mouse body weight change [1]: no significant changes
Fluorescence signal of excised tumor, relative to SC (semiquantitative) (4T1 tumor; organs and tumors dissected 24 h after injection, 2 mg/kg, n = 3): four folds higher than that of SC
Fluorescence intensity in orthotopic mouse tumors, folds of control (4T1 tumor; orthotopic mouse tumors, as worded in the introduction): 4 folds
Onset of tumor accumulation after injection (4T1 tumor; [10]): ≤ 0.5 h
Time of peak tumor fluorescence intensity after injection (4T1 tumor; [10]): 6 h
Fluorescence intensity of tumor site in vivo, folds of SC (4T1 tumor; subcutaneous tumor model, 2 mg/kg, 24 h after injection, n = 3): 2.5 folds
plasma half-life (t1/2α): 45 min
Increase of apoptotic rate compared with SC (4T1 cells [6]): 9.73%
Lysosomal colocalization index (Pearson co-localization coefficient) (4T1 cells [2]): 0.78
Decrease of singlet oxygen yield relative to SC [3]: 10%
Slope of DPBF bleaching (singlet oxygen yield) [3]: 0.06481
Solubility in aqueous solutions with Cremophor EL ([7]; aqueous solutions with 1 % Cremophor EL (CEL)): good solubility
Aggregation state from absorption spectra ([7]; physiological saline containing 1% CEL and DMEM medium containing 0.05% CEL, compared with DMF): remained monomer
Solubility in pure water ([7]; pure water): limited solubility
Absorbance at maximum absorption wavelength remaining after irradiation (photostability) [8]: about 80%
Dark toxicity: cell viability without light (4T1 cells [4]): did no significantly decreased
Killing effect upon exposure to light compared with SC (4T1 cells [4]; λ > 610 nm, 48 J/cm^2, 0 to 2 μM): lower killing effect
